In US20030181436A1, “Treatment for AIDS, HIV, and other related diseases and compounds for use therewith” (priority 2001, published 2003):

Tests used:
Format in all cases: cell-based
[1] = test system: TNFα induced U1 cells (HIV IIIB provirus); assay: U1 latent infection assay, supernatant reverse transcriptase activity; details: for % VC / RT ACTIVITY (cpm) MEAN: exp 2; for RT VALUES (cpm) MEAN / X VC: exp 1
Description: (§1) U1 and ACH-2 cells were obtained from the AIDS Research and Reference Reagent Program and maintained under standard culture conditions in RPMI 1640 supplemented with 10% fetal bovine serum (heat inactivated), supplemented with 2 mM […], 100U/ml penicillin and 100 μg/ml, streptomycin. U1 cells were derived from the histocytic leukemia cell line U937, and contain a single integrated copy (HIV IIIB) […] a cytokine and/or phorbol inducible provirus. ACH-2 cells are derived from the A3.01 T lymphoblastic cell line, and contain 2 copies of the HIV IIIB provirus, however only one is cytokine and/or phorbol inducible. Cultures were maintained in such a way as to ensure exponential growth of the populations. At the time of the assay, cells were collected by centrifugation and counted by hemacytometer. If cell viability by Trypan Blue dye exclusion was less than 70% the assay was terminated. The cells were adjusted to 5×10^4 cells/mL and 100 μL, placed in 96 well plates with 100 μL media containing a final concentration of […] TNFα and the test compound. Cultures were incubated for 3 days and supernatants harvested. Compound toxicity was determined by MTS dye reduction. Virus expression was measured by supernatant reverse transcriptasc activity.
Reverse transcriptase activity was measured in cell-free supernatants. Tritiated thymidine triphosphate (NEN) (TTP) was resuspended in distilled H2O at 5 Ci/mL. Poly rA and oligo dT were prepared as a stock solution which was kept at −20° C. The RT reaction buffer was prepared fresh on a daily basis and consists of 125 μL 1.0 M EGTA, 125 μL dH2O, 110 μL 10% SDS, 50 μL 1.0 M Tris (pH 7.4), 50 μL, 1.0 M DTT, and 40 μL 1.0 M MgCl2. These three solutions were mixed together in a ratio of 2 parts TTP, 1 part poly rA:oligo dT, and 1 part reaction buffer. Ten microliters of this reaction mixture was placed in a round bottom microtiter plate and 15 μL of virus containing supernatant was added and mixed. The plate was incubated at 37° C. in a water bath with a solid support to prevent submersion of the plate and incubated for 60 minutes. Following reaction, the reaction volume was spotted onto pieces of DE81 paper, washed 5 times for 5 minutes each in a 5% sodium phosphate buffer, 2 times for 1 minute each in distilled water, 2 times for 1 minute each in 70% ethanol, and then dried. Opti-Fluor O was added to each sample and incorporated radioactivity was quantitated utilizing a Wallac 1450 Microbetaplus liquid scintillation counter.

HIV = assay: HeLa CD4 LTR β-gal time of addition assay; details: single round, high M.O.I.
Source text: This time of addition assay measures reproducible events from initial virus binding to the trans activation of the β-galactosidase reporter by newly produced Tat protein. This is a single round of infection assay and is thus “cleaner” and more “precise” than a multi-round time of addition assay. […] Since it is hypothesized that the K and Z compounds work by interfering with virus transcription the later possibility seems more likely. Thus the use of a time of addition assay with PBMCs was utilized.

ACH-2 cells = assay: ACH-2 assay, compound toxicity by MTS dye reduction; set-up: Y. CC / 9′. CC: unit not given here
Description: At assay termination the assay plates were stained with the soluble tetrazolium-based dye MTS (CellTiter® Reagent, Promega) to determined cell viability and quantify compound toxicity. […] At termination of the assay 20 μL of MTS reagent was added per well. The wells were incubated for 4 h at 37° C., 5% CO2. Adhesive plate scalers were used in place of the lids, the sealed plate was inverted several times to mix the soluble formazan product and the plate was read spectrophotometrically at 490 nm with a 650 nm reference wavelength on a Molecular Devices Vmax plate reader.
as §1

In the case of Zinc Iodiscorbate [Compound Z], the “activity in the U1 assay” value [1] was “inactive”, the “% VC” value ([1]; 0.00063 ug/ml) was 110.1% and the “% VC” value ([1]; 0.002 ug/ml) was 105.4%. For the same substance, the “RT ACTIVITY (cpm) MEAN” value ([1]; 0.002 ug/ml) was 3245 cpm, the “% VC” value ([1]; 0.00625 ug/ml) was 99.9% and the “RT ACTIVITY (cpm) MEAN” value ([1]; 0.00625 ug/ml) was 3077 cpm. The “% VC” value ([1]; 0.02 ug/ml) was 94.2%, the “RT ACTIVITY (cpm) MEAN” value ([1]; 0.02 ug/ml) was 2902 cpm and the “% VC” value ([1]; 0.0625 ug/ml) was 93.9%. For the same substance, the “RT ACTIVITY (cpm) MEAN” value ([1]; 0.0625 ug/ml) was 2891 cpm, the “% VC” value ([1]; 0.2 ug/ml) was 101.2% and the “RT ACTIVITY (cpm) MEAN” value ([1]; 0.2 ug/ml) was 3115 cpm. The “RT VALUES (cpm) MEAN” value ([1]; 0.625 ug/ml) was 2504.7 cpm, the “X VC” value ([1]; 0.625 ug/ml) was 106.3 and the “% VC” value ([1]; 0.625 ug/ml) was 64.4%. For the same substance, the “RT ACTIVITY (cpm) MEAN” value ([1]; 0.625 ug/ml) was 1984 cpm, the “RT VALUES (cpm) MEAN” value ([1]; 2 ug/ml) was 2492.7 cpm and the “X VC” value ([1]; 2 ug/ml) was 105.8. The “% VC” value ([1]; 2 ug/ml) was 59.7%, the “RT ACTIVITY (cpm) MEAN” value ([1]; 2 ug/ml) was 1838 cpm and the “RT VALUES (cpm) MEAN” value ([1]; 6.25 ug/ml) was 2813.0 cpm. The “X VC” value ([1]; 6.25 ug/ml) was 119.4, the “% VC” value ([1]; 6.25 ug/ml) was 66.9% and the “RT ACTIVITY (cpm) MEAN” value ([1]; 6.25 ug/ml) was 2059 cpm. The “RT VALUES (cpm) MEAN” value ([1]; 20 ug/ml) was 2385.7 cpm, the “X VC” value ([1]; 20 ug/ml) was 101.2 and the “% VC” value ([1]; 20 ug/ml) was 63.2%. For the same substance, the “RT ACTIVITY (cpm) MEAN” value ([1]; 20 ug/ml) was 1947 cpm, the “RT VALUES (cpm) MEAN” value ([1]; 62.5 ug/ml) was 2253.7 cpm and the “X VC” value ([1]; 62.5 ug/ml) was 95.6. For the same substance, the “% VC” value ([1]; 62.5 ug/ml) was 39.78%, the “RT ACTIVITY (cpm) MEAN” value ([1]; 62.5 ug/ml) was 1225 cpm and the “RT VALUES (cpm) MEAN” value ([1]; 200 ug/ml) was 802.7 cpm. For the same substance, the “X VC” value ([1]; 200 ug/ml) was 34.1, the “% VC” value ([1]; 200 ug/ml) was 30.84% and the “RT ACTIVITY (cpm) MEAN” value ([1]; 200 ug/ml) was 950 cpm. For the same substance, the IC50 ([1]; U1, exp 2, Table 8) was “IC50 (uglml) = 43.99”, the IC50 ([1]; U1, experiment 1, Table 1) was 164 µg/mL and the IC50 ([1]; U1, experiment 2, Table 1) was 44 µg/mL. The IC50 ([1]; U1/TNFα, exp 1, Table 3) was “IC50 (ug/ml) = ..164.40”, the “U1 EC50” value ([1]; exp 2, Table 4) was 44.0 µg/mL and the “inhibition of HIV replication” value (HIV) was “failed to inhibit”. The “TOXICITY VALUES (MTS) MEAN” value (ACH-2 cells; 0.00063 μg/ml, exp 2) was 0.975 O, p, the “TOXICITY VALUES (MTS) MEAN” value (ACH-2 cells; 0.002 μg/ml, exp 2) was 0.929 O, p and the “TOXICITY VALUES (MTS) MEAN” value (ACH-2 cells; 0.00626 μg/ml, exp 2) was 0.961 O, p. The “9′. CC” value (ACH-2 cells; 0.02 μg/ml, exp 2) was 101.1, the “TOXICITY VALUES (MTS) MEAN” value (ACH-2 cells; 0.02 μg/ml, exp 2) was 1.006 O, p and the “TOXICITY VALUES (MTS) MEAN” value (ACH-2 cells; 0.0625 μg/ml, exp 2) was 0.894 O, p. For the same substance, the “9′. CC” value (ACH-2 cells; 0.2 μg/ml, exp 2) was 81.0, the “TOXICITY VALUES (MTS) MEAN” value (ACH-2 cells; 0.2 μg/ml, exp 2) was 0.807 O, p and the “9′. CC” value (ACH-2 cells; 0.625 μg/ml, exp 2) was 72.2. For the same substance, the “TOXICITY VALUES (MTS) MEAN” value (ACH-2 cells; 0.625 μg/ml, exp 2) was 0.718 O, p, the “9′. CC” value (ACH-2 cells; 2 μg/ml, exp 2) was 70.0 and the “TOXICITY VALUES (MTS) MEAN” value (ACH-2 cells; 2 μg/ml, exp 2) was 0.696 O, p. For the same substance, the “9′. CC” value (ACH-2 cells; 6.25 μg/ml, exp 2) was 40.1, the “TOXICITY VALUES (MTS) MEAN” value (ACH-2 cells; 6.25 μg/ml, exp 2) was 0.399 O, p and the “9′. CC” value (ACH-2 cells; 20 μg/ml, exp 2) was 0.0. The “TOXICITY VALUES (MTS) MEAN” value (ACH-2 cells; 20 μg/ml, exp 2) was 0.000 O, p, the “9′. CC” value (ACH-2 cells; 62.5 μg/ml, exp 2) was 0.0 and the “TOXICITY VALUES (MTS) MEAN” value (ACH-2 cells; 62.5 μg/ml, exp 2) was 0.000 O, p. The “9′. CC” value (ACH-2 cells; 200 μg/ml, exp 2) was 0.0, the “TOXICITY VALUES (MTS) MEAN” value (ACH-2 cells; 200 μg/ml, exp 2) was 0.000 O, p and the “TOXICITY VALUES (MTS) MEAN” value (ACH-2 cells; 0.00063 μG/Ml, exp 1) was 1.061 O. D. The “TOXICITY VALUES (MTS) MEAN” value (ACH-2 cells; 0.002 μG/Ml [c9], exp 1) was 1.049 O. D, the “TOXICITY VALUES (MTS) MEAN” value (ACH-2 cells; 0.002 μG/Ml [c11], exp 1) was 1.081 O. D and the “TOXICITY VALUES (MTS) MEAN” value (ACH-2 cells; 0.00625 μG/Ml, exp 1) was 1.019 O. D. The “TOXICITY VALUES (MTS) MEAN” value (ACH-2 cells; 0.0625 μG/Ml, exp 1) was 0.984 O. D, the “TOXICITY VALUES (MTS) MEAN” value (ACH-2 cells; 0.2 μG/Ml, exp 1) was 1.002 O. D and the “TOXICITY VALUES (MTS) MEAN” value (ACH-2 cells; 0.625 μG/Ml, exp 1) was 0.939 O. D. The “% CC” value (ACH-2 cells; 2 μG/Ml, exp 1) was 88.1%, the “TOXICITY VALUES (MTS) MEAN” value (ACH-2 cells; 2 μG/Ml, exp 1) was 0.885 O. D and the “% CC” value (ACH-2 cells; 6.25 μG/Ml, exp 1) was 81.8%. The “TOXICITY VALUES (MTS) MEAN” value (ACH-2 cells; 6.25 μG/Ml, exp 1) was 0.822 O. D, the “% CC” value (ACH-2 cells; 20 μG/Ml, exp 1) was 85.1% and the “TOXICITY VALUES (MTS) MEAN” value (ACH-2 cells; 20 μG/Ml, exp 1) was 0.856 O. D. The “% CC” value (ACH-2 cells; 62.5 μG/Ml, exp 1) was 6.3%, the “TOXICITY VALUES (MTS) MEAN” value (ACH-2 cells; 62.5 μG/Ml, exp 1) was 0.063 O. D and the “% CC” value (ACH-2 cells; 200 μG/Ml, exp 1) was 1.3%. For the same substance, the “TOXICITY VALUES (MTS) MEAN” value (ACH-2 cells; 200 μG/Ml, exp 1) was 0.013 O. D, the TC50 (ACH-2 cells; ACH2, exp 1, Table 2) was “ITC50 (μG/Ml) = 38.94” and the TC50 (ACH-2 cells; ACH-2, experiment 1, Table 1) was 39. The TC50 (ACH-2 cells; ACH-2, experiment 2, Table 1) was 4.8, the “ACH2 TC50” value (ACH-2 cells; exp 2) was 4.8 µg/mL and the “ACH2 TC50” value (ACH-2 cells; exp 2, listed as COMPOUND Z) was “TC50 (vg/mol) = 4.84 μg/ml”.
